From EPA's ToxValDB 9.5 (doi:10.2903/j.efsa.2017.4980)
In brackets after ≈: the same amount, converted by molar mass.

Columns and labels:
Anas platyrhynchos = settings: reproductive
Apis mellifera = settings: acute, mortality
Canidae = settings: oral, Dog Other, organ weight
Landoltia sp. = settings: chronic/long-term; duration: 14 days
Tagia sp. = settings: acute; duration: 14 days; mortality
Typhlodromus pyri = assay: LR50; higher = less toxic; settings: not reported; mortality

CCC(C)(NC(=O)c1cc(Cl)c(C)c(Cl)c1)C(=O)CCl (configuration not stated) [Zoxamide]
NOEC (Anas platyrhynchos): 123 mg/kg-day
LD50 (Apis mellifera; dermal): > 100 µg/piece
LD50 (Apis mellifera; oral, unspecified): > 33 µg/piece
NOAEL (Canidae; chronic, duration: 1 years): 50 mg/kg-day
NOAEL (Canidae; subchronic, duration: 90 days): 50 mg/kg-day
LD50 (Colinus virginianus; acute, oral, mortality): > 2000 mg/kg-day
NOEC (Colinus virginianus; reproduction developmental): 171 mg/kg-day
NOEC (Landoltia sp.): 0.009 mg/L
LC50 (Neomysis kadiakensis; acute, duration: 96 hours, mortality): 0.076 µg/mL (≈ 0.226 µM)
NOEC (Neomysis kadiakensis; chronic/long-term, duration: 27 days): 0.0072 mg/L
LC50 (Oncorhynchus mykiss; acute, duration: 96 hours, oral, feed, mortality): 0.16 µg/mL (≈ 0.475 µM)
NOEC (Oncorhynchus mykiss; chronic/long-term, duration: 95 days): 0.00348 mg/L
LD50 (Rattus norvegicus; acute, oral, mortality): > 5000 mg/kg-day
NOAEL (Rattus norvegicus; reproduction developmental, body weight): 360 mg/kg-day
LC50 (Tagia sp.): > 1070 mg/kg
NOEC (Tagia sp.): 66.7 mg/kg
LR50 (Typhlodromus pyri): > 300 g/ha
